Experimental findings from patent US10098897B2, “Methods and materials for reducing development of stenosis of arteriovenous fistulas” (Mayo Foundation for Medical Education and Research, priority 2014, dated 2018) are described below.

The test system of this test is Iex-1. In words: Iex-1 gene expression by qRT-PCR in hypoxic NIH 3T3 fibroblasts. The class given is cell-based, mouse. An excerpt:
To determine the expression of Iex-1 and Vegf-A in vitro, NIH 3T3 cells (ATCC, Manassas, Va.) were used and subjected to hypoxia and normoxia for different lengths of time as described elsewhere (Yang et al., Kidney Int., 85:289-306 (2014) and Janardhanan et al., Kidney Int., 84:338-52 (2013)). Cells were harvested for qRT-PCR analysis.
Cells or tissue were stored in a RNA stabilizing/cell lysis solution (Qiagen, Gaithersburg, Md.) (Yang et al., Kidney Int., 85:289-306 (2014) and Janardhanan et al., Kidney Int., 84:338-52 (2013)). Specimens were homogenized, and total RNA was extracted and isolated via the miRNEasy Mini kit (Qiagen). Culture cells were trypsinized and stored in Qiazol lysis regent and processed using the RNEasy Mini kit.
Gene expression was quantified using qRT-PCR as described elsewhere (Yang et al., Kidney Int., 85:289-306 (2014) and Janardhanan et al., Kidney Int., 84:338-52 (2013)).

`C=C1/C(=C\C=C2/CCC[C@]3(C)[C@@H]([C@H](C)CCCC(C)(C)O)CC[C@@H]23)C[C@@H](O)C[C@@H]1O` [calcitriol]: under “1 μM calcitriol, hypoxic fibroblasts, 24 hours, control PBS alone”, the “average decrease in Iex-1 expression vs. controls” value stood at 56%. For the same molecule, the “average Iex-1 expression (qRT-PCR)” value (1 μM calcitriol, hypoxic fibroblasts, 24 hours, control 8.62+1.52) is 3.84+2.2. Further, under “determined using a dose response curve”, the “optimal dose of calcitriol required to reduce Iex-1 expression” value stood at 1 µM.
